These results are taken from patent US6569622B1, “Nucleic acids encoding a protein conferring an inducible resistance to glycopeptide, particularly in gram-positive bacteria” (Institut Pasteur, priority 1992, dated 2003).

Converted amounts (≈) assume the structure as drawn. Some results are limits rather than exact numbers.

What all share (test): MIC determination on agar (method of Steers et al.)
The test system of one assay is Leuconostoc. sp. The class given is cell-based, Leuconostoc mesenteroides. The protocol: (§1) A brain-heart medium and agar (Difco Laboratories, Detroit, Mich.) were used. Sensitivity tests were performed on Mueller-Hinton agar (Diagnostics Pasteur, Marne LaCoquette, France). All of the incubations were performed at 37° C.
(§2) The disk diffusion test with disks containing 30 μg of vancomycin or 30 μg of teicoplanin (Diagnostics Pasteur) was used for the initial screening. The method of Steers et al. with 10^4 CFU per spot was used to determine the MIC of the antibiotics (Steers E. et al., Antibiot. Chemother. (Basel) 1959, 9: 307-11)

Assay [1] deals with isolates of E. faecium and E. faecalis resistant to high concentrations of vancomycin. It counts as cell-based. The note with it: 15 isolates resistant to high concentrations of vancomycin, including V583-2 and UMH-1. The text has this:
Bacterial strains: 39 isolates of E. faecium (28 strains) and E. faecalis (11 strains) resistant to low and high concentrations of vancomycin and sensitive to teicoplanin were studied (Table II). Among these strains 24 isolates including E. faecalis V583 (Sahm D. et al., Antimicrob. Agents Chemother. 1989, 33: 1588-91) and E. faecium D366 (Gutmnann L. et al., Antimicrob. Agents Chemother. 1992, 36: 77-80) were resistant to low concentrations of vancomycin on the basis of a disk sensitivity test. […] The control strains were well-characterized strains of entercocci belonging to the phenotypes A and C and hybridizing with the probes VanA and VanC, respectively. In particular there are 6 clinical isolates of E. faecium highly resistant to vancomycin and to teicoplanin, including BM4147. The strains of E. gallinarum including […] belonging to class C were also used as controls. Strains of E. casseliflavus are also used as controls, including the strain ATCC 25788, which are isolates intrinsically resistant to low levels of vancomycin and sensitive to teicoplanin (Leclercq R. et al., Antimicrob. Agents Chemother. 1992, 36: 2005-8).
A brain-heart medium and agar (Difco Laboratories, Detroit, Mich.) were used. Sensitivity tests were performed on Mueller-Hinton agar (Diagnostics Pasteur, Marne LaCoquette, France). All of the incubations were performed at 37° C. […]

A further assay has as its system E. faecium. The class given is cell-based, Enterococcus faecium. The protocol:
as §1, §2

A further assay concerns E. casseliflavus. It counts as cell-based. The protocol: as §1, §2
For the next assay, the system named is Lactobacillus spp. The class given is cell-based. The protocol:
as §1, §2

Assay [2] relates to Enterococcus spp. (susceptible). The class given is cell-based. The protocol:
as §1, §2

The next assay deals with E. gallinarum. It counts as cell-based. The protocol:
as §1, §2

A further assay has as its system Pediococcus spp. It counts as cell-based. The protocol: as §1, §2
The test system of a further assay is E. faecalis. It counts as cell-based, Enterococcus faecalis. The protocol: as §1, §2
The test system of the next assay is E. rhusiopathiae. It counts as cell-based, Erysipelothrix rhusiopathiae. The protocol: as §1, §2
Where [3] appears, read: E. gallinarum(3), phenotypic class C, genotypic class C.

Consider `CN[C@H](CC(C)C)C(=O)N[C@H]1C(=O)N[C@@H](CC(N)=O)C(=O)N[C@H]2C(=O)N[C@H]3C(=O)N[C@H](C(=O)N[C@H](C(=O)O)c4cc(O)cc(O)c4-c4cc3ccc4O)[C@H](O)c3ccc(c(Cl)c3)Oc3cc2cc(c3O[C@@H]2O[C@H](CO)[C@@H](O)[C@H](O)[C@H]2O[C@H]2C[C@](C)(N)[C@H](O)[C@H](C)O2)Oc2ccc(cc2Cl)[C@H]1O` [Vancomycin, vancomycin], for which the MIC against Leuconostoc. sp. (Leuconostoc mesenteroides) is > 1 µg/mL; in assay [1] it was ≥ 128 µg/mL; against E. faecium (Enterococcus faecium, ATCC19434, E. faecium strain ATCC 19434), 1 µg/mL (≈ 0.69 µM); in the assay on E. faecium (Enterococcus faecium, E. faecium strain BM4147), 1020 µg/mL (≈ 707 µM); in the assay with E. faecium (Enterococcus faecium, E. faecium strain D366), 32 µg/mL (≈ 22.1 µM); with E. faecium (Enterococcus faecium, E. faecium strain MT10R), 2 µg/mL (≈ 1.38 µM). The MIC with E. faecium (Enterococcus faecium, E. faecium(28), phenotypic class B, genotypic class B) is 4 to 256 µg/mL (≈ 2.76 to 177 µM); in the assay on E. casseliflavus (Enterococcus casseliflavus, E. casseliflavus (Table I, strain not given)), 8 µg/mL (≈ 5.52 µM); against E. casseliflavus (Enterococcus casseliflavus, E. casseliflavus(2), phenotypic class C, genotype NC), 4 to 8 µg/mL (≈ 2.76 to 5.52 µM); in the assay with Lactobacillus spp. (Lactobacillus), > 1 µg/mL; in assay [2] (Enterococcus) it was 0.5 to 2 µg/mL (≈ 0.345 to 1.38 µM); against E. gallinarum (setting [3]), 8 µg/mL (≈ 5.52 µM). Moreover, the MIC was 8 µg/mL (≈ 5.52 µM) in the assay on E. gallinarum (Enterococcus gallinarum, GALLINARUM); > 1 µg/mL with Pediococcus spp. (Pediococcus); 2 µg/mL (≈ 1.38 µM) in the assay on E. faecalis (Enterococcus faecalis, ATCC29212, E. faecalis strain ATCC 29212); 1020 µg/mL (≈ 707 µM) with E. faecalis (Enterococcus faecalis, E. faecalis strain UMH-1); 64 µg/mL (≈ 44.2 µM) in the assay on E. faecalis (Enterococcus faecalis, E. faecalis strain V583); 1020 µg/mL (≈ 707 µM) with E. faecalis (Enterococcus faecalis, E. faecalis strain V583-2). Further, the MIC against E. faecalis (Enterococcus faecalis, E. faecalis strain V583-C1) was 2 µg/mL (≈ 1.38 µM); with E. faecalis (Enterococcus faecalis, E. faecalis(11), phenotypic class B, genotypic class B), 4 to 1020 µg/mL (≈ 2.76 to 707 µM); against E. rhusiopathiae (Erysipelothrix rhusiopathiae), > 1 µg/mL.

As to teicoplanin, the MIC against Leuconostoc. sp. (Leuconostoc. sp.(1)) is >1.000 µg/mL; in the assay with E. faecium (E. faecium strain ATCC 19434), 1 µg/mL; against E. faecium (E. faecium strain BM4147) it was 512 µg/mL; against E. faecium (E. faecium strain D366) it was 0.5 µg/mL; in the assay on E. faecium (E. faecium strain MT10R) it was 0.25 µg/mL; against E. faecium (E. faecium(28), phenotypic class B, genotypic class B), 0.5 to 1 µg/mL. Further, the MIC in the assay with E. casseliflavus (E. casseliflavus (Table I, strain not given)) is 1 µg/mL; against E. casseliflavus (E. casseliflavus(2), phenotypic class C, genotype NC), 0.5 to 1 µg/mL; in the assay with Lactobacillus spp. (Lactobacillus spp.(8)), >1.000 µg/mL; in assay [2] (Enterococcus spp.(10), phenotypic class Susceptible), 0.25 µg/mL; against E. gallinarum (E. gallinarum strain BM4174) it was 1 µg/mL; in the assay with E. gallinarum (setting [3]) it was 1 µg/mL. Further, the minimum inhibitory concentration (MIC) in the assay with Pediococcus spp. (Pediococcus spp.(2)) is >1.000 µg/mL; against E. faecalis (E. faecalis strain ATCC 29212) it was 0.5 µg/mL; in the assay on E. faecalis (E. faecalis strain UMH-1) it was 1.0 µg/mL; with E. faecalis (E. faecalis strain V583) it was 0.5 µg/mL; in the assay with E. faecalis (E. faecalis strain V583-2) it was 1.0 µg/mL; with E. faecalis (E. faecalis strain V583-C1), 0.5 µg/mL. In addition, the MIC was 0.5 to 1 µg/mL against E. faecalis (E. faecalis(11), phenotypic class B, genotypic class B) and >1.000 µg/mL against E. rhusiopathiae (E. rhusiopathiae(1)).

The MIC is the lowest concentration that inhibits growth of the organism. Higher therefore signals a less susceptible organism.
